Measured values as given in ChEMBL document CHEMBL1135307, “Novel diamide-based inhibitors of IMPDH” (Bioorg Med Chem Lett, 2002).

Each compound was assayed against Inosine-5'-monophosphate dehydrogenase 2 (Homo sapiens, UniProt P12268) (assay: Inhibition of human Inosine-5'-monophosphate dehydrogenase 2).

| SMILES | IC50 [nM] |
| --- | --- |
| CC(C)(C)NC(=O)C(=O)Nc1ccc(-c2cnco2)c(Cl)c1 | 55 |
| COc1cc(NC(=O)CC(=O)Nc2ccccc2)ccc1-c1cnco1 | 400 |
| COc1cc(NC(=O)C(=O)NC(C)(C)CN(C)C)ccc1-c1cnco1 | 47 |
| CC(C)(C)NC(=O)C(=O)Nc1ccc(-c2cnco2)c(Br)c1 | 50 |
| COC(=O)C(C)(C)NC(=O)C(=O)Nc1ccc(-c2cnco2)c(OC)c1 | 74 |
| COc1cc(NC(=O)C(=O)N(C)C(C)(C)C)ccc1-c1cnco1 | > 10000 |
| COc1cc(NC(=O)C(=O)NC(C)(C)C)ccc1-c1cnco1 | 10 |
| COc1cc(NC(=O)C(=O)Nc2cccc(CNC(=O)O[C@@H]3CCOC3)c2)ccc1-c1cnco1 | 30 |
| COc1cc(NC(=O)CC(=O)Nc2cccc(C)c2)ccc1-c1cnco1 | 440 |
| COc1cc(NC(=O)C(=O)N(C)c2ccccc2)ccc1-c1cnco1 | > 10000 |
| COc1cc(NC(=O)C(=O)NC(C)C)ccc1-c1cnco1 | > 10000 |
| COc1cc(NC(=O)C(=O)NC(C)(C)CO)ccc1-c1cnco1 | 19 |
| CC(C)(C)NC(=O)C(=O)Nc1ccc(-c2cnco2)cc1 | > 10000 |
| Cc1ncoc1-c1ccc(NC(=O)C(=O)NC(C)(C)C)cc1 | > 10000 |
| COc1cc(NC(=O)C(=O)NCc2ccccc2)ccc1-c1cnco1 | > 10000 |
| COc1cc(NC(=O)C(=O)NC2CCCCC2)ccc1-c1cnco1 | > 10000 |
| COc1cc(NC(=O)C(=O)NNc2ccccc2)ccc1-c1cnco1 | > 10000 |
| CCCNC(=O)C(=O)Nc1ccc(-c2cnco2)c(OC)c1 | > 10000 |
| COc1cc(NC(=O)C(=O)Nc2ccccc2)ccc1-c1cnco1 | 52 |
| COc1cc(NC(=O)C(=O)NC(C)(C)C(=O)O)ccc1-c1cnco1 | > 10000 |
| COc1cc(NC(=O)C(=O)NC2(CO)CCCC2)ccc1-c1cnco1 | 18 |
